Values joined by “and” are separate entries in the source; they are usually repeats but may differ in a detail not shown here. Equal entries are not always repeated. Inconclusive results are not listed.
Tested on: MX-1 breast xenograft, nude mice, tumor weight T/C
Assay: NCI In Vivo Anticancer Drug Screen. Data for tumor model Human Mammary Carcinoma MX-1 Xenograft (intrarenal inoculation) in NU/NU Swiss (nude) mice
Details: endpoint: mean tumor weight change, higher = larger tumour
How it was run: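 Compound dosed to mice with transplantable tumor; vehicle group as control. Endpoint survival or tumour size, reported as T/C.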

[1] = dose: 300.0 mg/kg/injection, schedule: Q04DX003 (sc), vehicle: Klucel (hydroxypropylcellulose) (HPC)
[2] = dose: 600.0 mg/kg/injection, schedule: Q04DX003 (sc), vehicle: Klucel (hydroxypropylcellulose) (HPC)
[3] = dose: 1200.0 mg/kg/injection, schedule: Q04DX003 (sc), vehicle: Klucel (hydroxypropylcellulose) (HPC)
[4] = dose: 2400.0 mg/kg/injection, schedule: Q04DX003 (sc), vehicle: Klucel (hydroxypropylcellulose) (HPC)
[5] = dose: 50.0 mg/kg/injection, schedule: Q01DX010 (sc), vehicle: Klucel (hydroxypropylcellulose) (HPC)
[6] = dose: 100.0 mg/kg/injection, schedule: Q01DX010 (sc), vehicle: Klucel (hydroxypropylcellulose) (HPC)
[7] = dose: 50.0 mg/kg/injection, schedule: Q01DX010 (sc), vehicle: saline
[8] = dose: 100.0 mg/kg/injection, schedule: Q01DX010 (sc), vehicle: saline
[9] = dose: 200.0 mg/kg/injection, schedule: Q01DX010 (sc), vehicle: saline
[10] = dose: 18.75 mg/kg/injection, schedule: Q04DX003 (sc), vehicle: Klucel (hydroxypropylcellulose) (HPC)
[11] = dose: 25.0 mg/kg/injection, schedule: Q01DX010 (sc), vehicle: saline
[12] = dose: 300.0 mg/kg/injection, schedule: Q04DX003 (sc), vehicle: saline with Tween-80
[13] = dose: 600.0 mg/kg/injection, schedule: Q04DX003 (sc), vehicle: saline with Tween-80
[14] = dose: 1200.0 mg/kg/injection, schedule: Q04DX003 (sc), vehicle: saline with Tween-80

`S=C(Nc1ccc(Cl)c(Cl)c1)N1c2ccccc2-n2cccc2C1c1cccnc1` (stereo not drawn) was tested, and the T/C [1] was 123 % of control, the T/C [2] was 89 % of control and the T/C [3] was 108 % of control. The T/C [4] was 108 % of control.

`O=C([CH-]C(=O)C(F)(F)F)c1ccccc1.O=C([CH-]C(=O)C(F)(F)F)c1ccccc1.O=C([CH-]C(=O)C(F)(F)F)c1ccccc1.O=C([CH-]C(=O)C(F)(F)F)c1ccccc1.[Eu+3].c1ccncc1` was tested, and the T/C [5] was 197 % of control, the T/C [6] was 174 % of control and the T/C (dose: 200.0 mg/kg/injection, schedule: Q01DX010 (sc), vehicle: Klucel (hydroxypropylcellulose) (HPC)) was 97 % of control. The T/C (dose: 400.0 mg/kg/injection, schedule: Q01DX010 (sc), vehicle: Klucel (hydroxypropylcellulose) (HPC)) was 178 % of control.

`CC(=O)NCCCCCCNC(C)=O` was tested, and the T/C [7] was 163 % of control, the T/C [8] was 124 % of control and the T/C [9] was 103 % of control and 111 % of control. The T/C (dose: 400.0 mg/kg/injection, schedule: Q01DX010 (sc), vehicle: saline) was 84 % of control, the T/C (dose: 800.0 mg/kg/injection, schedule: Q01DX010 (sc), vehicle: saline) was 88 % of control and the T/C (dose: 1600.0 mg/kg/injection, schedule: Q01DX010 (sc), vehicle: saline) was 78 % of control and 103 % of control. For the same molecule, the T/C (dose: 3200.0 mg/kg/injection, schedule: Q01DX010 (sc), vehicle: saline) was 104 % of control and the T/C (dose: 6400.0 mg/kg/injection, schedule: Q01DX010 (sc), vehicle: saline) was 58 % of control.

`COc1cc([C@@H]2c3cc4c(cc3[C@@H](OC3OC5COC(C)OC5C(O)C3O)[C@H]3COC(=O)[C@H]23)OCO4)cc(OC)c1O` (stereo partly drawn) was tested, and the T/C (dose: 2.0 mg/kg/injection, schedule: Q01DX010 (sc), vehicle: saline) was 72 % of control, the T/C (dose: 4.0 mg/kg/injection, schedule: Q01DX010 (sc), vehicle: saline) was 97 % of control and the T/C (dose: 8.0 mg/kg/injection, schedule: Q01DX010 (sc), vehicle: saline) was 51 % of control. For the same molecule, the T/C (dose: 16.0 mg/kg/injection, schedule: Q01DX010 (sc), vehicle: saline) was 72 % of control.

For `OCCOCCN1CCN(CCCN2c3ccccc3Sc3ccc(C(F)(F)F)cc32)CC1`, the T/C (dose: 3.0 mg/kg/injection, schedule: Q01DX010 (sc), vehicle: saline) was 111 % of control, the T/C (dose: 24.0 mg/kg/injection, schedule: Q01DX010 (sc), vehicle: saline) was 41 % of control and 55 % of control and the T/C (dose: 48.0 mg/kg/injection, schedule: Q01DX010 (sc), vehicle: saline) was 39 % of control.

In the case of `O=[N+]([O-])c1c(O)c(CNCCCO)cc(CNCCCO)c1O`, the T/C (dose: 37.5 mg/kg/injection, schedule: Q04DX003 (ip), vehicle: suspension in saline) is reported as 50 % of control and the T/C (dose: 75.0 mg/kg/injection, schedule: Q04DX003 (ip), vehicle: suspension in saline) is reported as 55 % of control.

For `COc1ccc2c(ccc3oc([N+](=O)[O-])cc32)c1`, the T/C [1] was 99 % of control, the T/C [2] was 72 % of control and the T/C [3] was 71 % of control. The T/C [4] was 36 % of control.

For `O=S(=O)(O)O.[NH-]C1CCCCC1[NH-].[Pt+2]` (stereo not drawn), the T/C (dose: 0.63 mg/kg/injection, schedule: Q01DX010 (sc), vehicle: dextrose) was 95 % of control and 111 % of control and 115 % of control and the T/C (dose: 2.5 mg/kg/injection, schedule: Q01DX010 (sc), vehicle: dextrose) was 10 % of control and 12 % of control.

For `CN(C)c1ccc2c(N(C)C)cc(N(C)C)nc2c1`, the T/C [10] was 78 % of control, the T/C (dose: 37.5 mg/kg/injection, schedule: Q04DX003 (sc), vehicle: Klucel (hydroxypropylcellulose) (HPC)) was 84 % of control and the T/C (dose: 75.0 mg/kg/injection, schedule: Q04DX003 (sc), vehicle: Klucel (hydroxypropylcellulose) (HPC)) was 82 % of control.

In the case of `COc1ccc(CC2C(=O)NC(C)C(=O)N(C)C3C(=O)N(C)C(Cc4ccc(O)c(c4)Oc4ccc(cc4)C3O)C(=O)NC(C)C(=O)NC(C)C(=O)N2C)cc1` (stereo not drawn), the T/C (dose: 0.5 mg/kg/injection, schedule: Q01DX010 (sc), vehicle: saline with Tween-80) is reported as 78 % of control, the T/C (dose: 1.0 mg/kg/injection, schedule: Q01DX010 (sc), vehicle: saline with Tween-80) is reported as 51 % of control and the T/C (dose: 2.0 mg/kg/injection, schedule: Q01DX010 (sc), vehicle: saline with Tween-80) is reported as 34 % of control.

With `CN1CCN(CCCN2c3ccccc3Sc3ccc(C(F)(F)F)cc32)CC1` the T/C [11] was 107 % of control, the T/C [7] was 61 % of control and 73 % of control and the T/C [8] was 31 % of control and 52 % of control. The T/C [9] was 32 % of control.

In the case of `Cc1c2ccc3ccccc3c2c[n+]2ccccc12`, the T/C (dose: 9.38 mg/kg/injection, schedule: Q04DX003 (sc), vehicle: Klucel (hydroxypropylcellulose) (HPC)) is reported as 75 % of control and the T/C [10] is reported as 77 % of control.

In the case of `CC(=O)C1(O)Cc2c(O)c3c(c(O)c2C(OC2CC(N)C(O)C(C)O2)C1)C(=O)c1ccccc1C3=O` (stereo not drawn), the T/C (dose: 0.5 mg/kg/injection, schedule: Q04DX003 (sc), vehicle: water) is reported as 104 % of control and the T/C (dose: 1.0 mg/kg/injection, schedule: Q04DX003 (sc), vehicle: water) is reported as 100 % of control.

In the case of `COc1cc(C(=O)N/N=C/c2cccc([N+](=O)[O-])c2)cc(OC)c1OC`, the T/C (dose: 150.0 mg/kg/injection, schedule: Q04DX003 (sc), vehicle: saline with Tween-80) is reported as 178 % of control, the T/C [12] is reported as 114 % of control and the T/C [13] is reported as 67 % of control. For the same molecule, the T/C [14] was 108 % of control.

`O=C(C#Cc1ccccc1)c1ccccc1` was tested, and the T/C (dose: 50.0 mg/kg/injection, schedule: Q04DX003 (sc), vehicle: Klucel (hydroxypropylcellulose) (HPC)) was 76 % of control, the T/C (dose: 100.0 mg/kg/injection, schedule: Q04DX003 (sc), vehicle: Klucel (hydroxypropylcellulose) (HPC)) was 113 % of control and the T/C (dose: 200.0 mg/kg/injection, schedule: Q04DX003 (sc), vehicle: Klucel (hydroxypropylcellulose) (HPC)) was 87 % of control. The T/C [1] was 87 % of control, the T/C (dose: 400.0 mg/kg/injection, schedule: Q04DX003 (sc), vehicle: Klucel (hydroxypropylcellulose) (HPC)) was 42 % of control and the T/C [2] was 110 % of control. For the same molecule, the T/C [3] was 104 % of control.

In the case of `O=c1cc(-c2ccccc2)[nH]c2c1CCCC2`, the T/C [12] is reported as 54 % of control, the T/C [13] is reported as 53 % of control and the T/C [14] is reported as 65 % of control. The T/C (dose: 2400.0 mg/kg/injection, schedule: Q04DX003 (sc), vehicle: saline with Tween-80) was 96 % of control.

For `Nc1cc2[nH]cnc2c(=O)[nH]1`, the T/C [11] was 46 % of control, the T/C [7] was -36 % of control and the T/C (dose: 50.0 mg/kg/injection, schedule: Q01DX010 (sc), vehicle: suspension in saline) was 9 % of control. For the same molecule, the T/C (dose: 50.0 mg/kg/injection, schedule: Q04DX003 (sc), vehicle: suspension in saline) was 95 % of control, the T/C [8] was -25 % of control and -11 % of control and the T/C (dose: 100.0 mg/kg/injection, schedule: Q01DX010 (sc), vehicle: suspension in saline) was -28 % of control. The T/C (dose: 100.0 mg/kg/injection, schedule: Q04DX003 (sc), vehicle: suspension in saline) was 83 % of control and 100 % of control, the T/C [9] was -31 % of control and the T/C (dose: 200.0 mg/kg/injection, schedule: Q01DX010 (sc), vehicle: suspension in saline) was -89 % of control. For the same molecule, the T/C (dose: 200.0 mg/kg/injection, schedule: Q04DX003 (sc), vehicle: suspension in saline) was 8 % of control and 31 % of control, the T/C (dose: 400.0 mg/kg/injection, schedule: Q04DX003 (sc), vehicle: suspension in saline) was 12 % of control and 18 % of control and the T/C (dose: 800.0 mg/kg/injection, schedule: Q04DX003 (sc), vehicle: suspension in saline) was 8 % of control.

For `CC1=C[S+](c2ccccc2)c2cccc3cc4ccccc4c1c23` (stereo not drawn), the T/C (dose: 8.0 mg/kg/injection, schedule: Q04DX003 (sc), vehicle: saline with Tween-80) was 69 % of control and the T/C (dose: 16.0 mg/kg/injection, schedule: Q04DX003 (sc), vehicle: saline with Tween-80) was 75 % of control.

`O=C(O)CC(=O)O.[NH-]C1CCCCC1[NH-].[Pt+2]` (stereo not drawn) was tested, and the T/C (dose: 20.0 mg/kg/injection, schedule: Q01DX010 (sc), vehicle: dextrose) was 1 % of control and -16 % of control and the T/C (dose: 40.0 mg/kg/injection, schedule: Q01DX010 (sc), vehicle: dextrose) was -81 % of control and -78 % of control.

In the case of `CCC1CN2C(=N1)c1ccccc1-c1cc(Cl)ccc12` (stereo not drawn), the T/C (dose: 12.5 mg/kg/injection, schedule: Q01DX010 (sc), vehicle: saline with Tween-80) is reported as 108 % of control, the T/C (dose: 25.0 mg/kg/injection, schedule: Q01DX010 (sc), vehicle: saline with Tween-80) is reported as 118 % of control and the T/C (dose: 50.0 mg/kg/injection, schedule: Q01DX010 (sc), vehicle: saline with Tween-80) is reported as 108 % of control.

In the case of `CC(=O)[O][Pb]([O]C(C)=O)([c]1ccccc1)[c]1ccccc1`, the T/C (dose: 25.0 mg/kg/injection, schedule: Q01DX010 (sc), vehicle: Klucel (hydroxypropylcellulose) (HPC)) is reported as 105 % of control, the T/C [5] is reported as 167 % of control and the T/C [6] is reported as 122 % of control. The T/C (dose: 800.0 mg/kg/injection, schedule: Q01DX010 (sc), vehicle: Klucel (hydroxypropylcellulose) (HPC)) was 51 % of control.

From PubChem BioAssay AID296 (DTP/NCI, 2004)
